Measured values as given in patent US20230286983A1 (4E Therapeutics, Inc., priority 2020, published 2023).
Values joined by “and” are separate entries in the source; they are usually repeats but may differ in a detail not shown here. Identical values can stand only once. Like-named read-outs stand apart in the source and are kept apart here.

Experiments:
[1] = Pharmacokinetic study, 4ET-03-009 at 20 mg/kg oral; type: in vivo, CD-1 male mice; settings: for AUCinf/D / Cmax/D: dose normalized; for concentration at 0.083 hours / concentration at 0.25 hours / concentration at 0.5 hours / concentration at 1 hours / concentration at 2 hours / concentration at 4 hours / concentration at 6 hours / concentration at 8 hours / concentration at 24 hours: oral
Experimental: Compound 4ET-03-009 was dissolved in a 10% dimethylacetamide (DMA)/3000 polyethylene glycol (PEG) 300/400% propylene glycol (PG)/200% water solvent. […] Plasma was collected at indicated timepoints and plasma concentration of compound 4ET-03-009 was measured using liquid chromatography-mass spectrometry/mass spectrometry (LC-MS/MS). Results are presented in FIG. 1 and Tables 3, 4, and 5.
Compound 4ET-03-009 was dissolved in a 10% dimethylacetamide (DMA)/30% polyethylene glycol (PEG) 300/40% propylene glycol (PG)/20% water solvent. Dosing and assay were performed as described in Biological Example 2. Results are presented in FIG. 3 and Tables 7, 8, and 9, below.

[2] = Brain vs plasma concentration, 4ET-03-009 at 10 mg/kg; type: in vivo, mice; settings: 10 mg/kg oral, 2 hours after dosing; for concentration at 2 hours: oral, 10 mg/kg
Experimental: In separate mice administered the same therapy, brain tissue was harvested 2 hours after dosing and brain concentration of the MNK inhibitor was measured by homogenizing brain tissue followed by LC-MS/MS analysis. Plasma concentration was measured as described above.

[3] = molecular target: Cdc2-like kinase 4 (CLK4) (Homo sapiens, UniProt Q9HAZ1); assay: Off-target kinase screen CLK4; type: biochemical; settings: 1 μM test compound
Cdc2-like kinase 4 (CLK4), sequence (Q9HAZ1 whole entry): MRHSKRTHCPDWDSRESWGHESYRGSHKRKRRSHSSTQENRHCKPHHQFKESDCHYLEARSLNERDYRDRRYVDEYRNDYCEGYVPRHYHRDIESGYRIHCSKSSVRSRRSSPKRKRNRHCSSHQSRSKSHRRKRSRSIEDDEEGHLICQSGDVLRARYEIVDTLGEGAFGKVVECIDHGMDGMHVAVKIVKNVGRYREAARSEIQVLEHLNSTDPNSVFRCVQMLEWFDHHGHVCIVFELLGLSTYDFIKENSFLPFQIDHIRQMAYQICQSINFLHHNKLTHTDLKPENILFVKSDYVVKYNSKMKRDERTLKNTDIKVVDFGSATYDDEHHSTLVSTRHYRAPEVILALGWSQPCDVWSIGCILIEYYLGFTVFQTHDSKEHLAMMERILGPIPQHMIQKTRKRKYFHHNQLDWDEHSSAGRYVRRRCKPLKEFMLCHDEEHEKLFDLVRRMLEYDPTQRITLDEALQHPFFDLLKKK
Description: These kinases were chosen because they are the only known off-target hit kinases for eFT508. These assays were done using recombinant human kinases (CLK4, DRAK1 and PKG2) in a substrate phosphorylation assay. % activity remaining after MNK inhibitor treatment is indicated in Table 12.

[4] = male, CD-1, mouse, plasma, 20 mg/kg, mean n = 3, read-out: Plasma Conc. Mean
[5] = male, CD-1, mouse, plasma, 20 mg/kg, read-out: Plasma Conc. (per mouse n = 3)
[6] = male, CD-1, mouse, plasma, po, 20 mg/kg, Mean (n = 3)
[7] = male, CD-1, mouse, plasma, po, 20 mg/kg, individual animals

Q: What does the source list for `Cc1cc(Nc2cc(NC(=O)C3CC3)ncn2)c(=O)n2c1C(=O)NC21CCOCC1` [Compound 4ET-03-009, N-(6-((8-Methyl-1,5-dioxo-1,2′,3′,5,5′,6′-hexahydro-2H-spiro[imidazo[1,5-a]pyridine-3,4′-pyran]-6-yl)amino)pyrimidin-4-yl)cyclopropanecarboxamide]?
A: Plasma Conc. (per mouse n = 3) ([1]; 2 hours): 372 ng/mL and 286 ng/mL; Plasma Conc. (per mouse n = 3) ([1]; 4 hours): 144 ng/mL and 135 ng/mL; Plasma Conc. (per mouse n = 3) ([1]; 6 hours): 71.3 ng/mL and 58.7 ng/mL; Plasma Conc. (per mouse n = 3) ([1]; 8 hours): 51.4 ng/mL and 41.5 ng/mL; Plasma Conc. (per mouse n = 3) ([1]; 24 hours): 2.01 ng/mL and 1.89 ng/mL; Tlast ([1]; Mean (n = 3)): 24.0 h; t1/2 ([1]; Mean (n = 3)): 3.55 h; AUCinf/D ([1]; Mean (n = 3)): 113 kg·h/kL; Cmax/D ([1]; Mean (n = 3)): 29.5 kg/kL; AUC0-8 hours ([1]; individual animals): 1847 ng·h/mL and 1501 ng·h/mL; AUCinf ([1]; individual animals): 2284 ng·h/mL and 1858 ng·h/mL; AUClast ([1]; individual animals): 2274 ng·h/mL and 1848 ng·h/mL; Clast ([1]; individual animals): 2.01 ng/mL and 1.89 ng/mL; Cmax ([1]; individual animals): 607 ng/mL and 497 ng/mL; MRTinf ([1]; individual animals): 3.53 h; Tlast ([1]; individual animals): 24.0 h; t1/2 ([1]; individual animals): 3.47 h and 3.61 h; AUCinf/D ([1]; individual animals): 131 kg·h/kL and 114 kg·h/kL and 92.9 kg·h/kL; Cmax/D ([1]; individual animals): 33.3 kg/kL and 30.4 kg/kL and 24.9 kg/kL; Tmax ([1]; male, CD-1, mouse, plasma, individual animals): 0.5 h; concentration at 0.083 hours [1, 4]: 331 ng/mL; concentration at 0.083 hours [1, 5]: 304 ng/mL; concentration at 0.25 hours [1, 4]: 530 ng/mL; concentration at 0.25 hours [1, 5]: 665 ng/mL; concentration at 0.5 hours [1, 4]: 590 ng/mL; concentration at 0.5 hours [1, 5]: 666 ng/mL; concentration at 1 hours [1, 4]: 553 ng/mL; concentration at 1 hours [1, 5]: 649 ng/mL; concentration at 2 hours ([1]; male, CD-1, mouse, plasma, 20 mg/kg, 2 hours, mean n = 3, read-out: Plasma Conc. Mean): 355 ng/mL; concentration at 2 hours ([1]; male, CD-1, mouse, plasma, 20 mg/kg, 2 hours, read-out: Plasma Conc. (per mouse n = 3)): 408 ng/mL; concentration at 4 hours ([1]; male, CD-1, mouse, plasma, 20 mg/kg, 4 hours, mean n = 3, read-out: Plasma Conc. Mean): 153 ng/mL; concentration at 4 hours ([1]; male, CD-1, mouse, plasma, 20 mg/kg, 4 hours, read-out: Plasma Conc. (per mouse n = 3)): 180 ng/mL; concentration at 6 hours ([1]; male, CD-1, mouse, plasma, 20 mg/kg, 6 hours, mean n = 3, read-out: Plasma Conc. Mean): 74.5 ng/mL; concentration at 6 hours ([1]; male, CD-1, mouse, plasma, 20 mg/kg, 6 hours, read-out: Plasma Conc. (per mouse n = 3)): 93.6 ng/mL; concentration at 8 hours ([1]; male, CD-1, mouse, plasma, 20 mg/kg, 8 hours, mean n = 3, read-out: Plasma Conc. Mean): 50.2 ng/mL; concentration at 8 hours ([1]; male, CD-1, mouse, plasma, 20 mg/kg, 8 hours, read-out: Plasma Conc. (per mouse n = 3)): 57.6 ng/mL; concentration at 24 hours ([1]; male, CD-1, mouse, plasma, 20 mg/kg, 24 hours, mean n = 3, read-out: Plasma Conc. Mean): 2.22 ng/mL; concentration at 24 hours ([1]; male, CD-1, mouse, plasma, 20 mg/kg, 24 hours, read-out: Plasma Conc. (per mouse n = 3)): 2.75 ng/mL; concentration at 24 hours ([1]; male, CD-1, mouse, plasma, 20 mg/kg, Mean (n = 3), read-out: Clast): 2.22 ng/mL; concentration at 24 hours ([1]; male, CD-1, mouse, plasma, 20 mg/kg, individual animals, read-out: Clast): 2.75 ng/mL; AUC(0-inf) [1, 6]: 2260 ng·h/mL; MRT inf [1, 6]: 3.59 h; half-life [1, 6]: 3.6 h; AUC(0-t) ([1]; male, CD-1, mouse, plasma, po, 20 mg/kg, Mean (n = 3), read-out: AUC0-8 hours): 1830 ng·h/mL; AUC(0-t) ([1]; male, CD-1, mouse, plasma, po, 20 mg/kg, Mean (n = 3), read-out: AUClast): 2240 ng·h/mL; Cmax ([1]; male, CD-1, mouse, plasma, po, 20 mg/kg, Mean (n = 3), read-out: Cmax): 590 ng/mL; AUC(0-inf) ([1]; male, CD-1, mouse, plasma, po, 20 mg/kg, for the study): 2260 ng·h/mL; Cmax ([1]; male, CD-1, mouse, plasma, po, 20 mg/kg, for the study, read-out: Cmax): 1400 nM; AUC(0-inf) [1, 7]: 2630 ng·h/mL; MRT inf [1, 7]: 3.63 h; half-life [1, 7]: 3.58 h; AUC(0-t) ([1]; male, CD-1, mouse, plasma, po, 20 mg/kg, individual animals, read-out: AUC0-8 hours): 2130 ng·h/mL; AUC(0-t) ([1]; male, CD-1, mouse, plasma, po, 20 mg/kg, individual animals, read-out: AUClast): 2610 ng·h/mL; Cmax ([1]; male, CD-1, mouse, plasma, po, 20 mg/kg, individual animals, read-out: Cmax): 666 ng/mL; brain entry [2]: enters the brain very poorly; Tissue Homogenate Conc. n = 3 ([2]; Brain, individual): 5.5 ng/mL and 7.28 ng/mL; Plasma Conc. n = 3 ([2]; Plasma, individual): 292 ng/mL and 337 ng/mL; concentration at 2 hours ([2]; CD-1, mouse, brain homogenate, Brain, individual, read-out: Tissue Homogenate Conc. n = 3): 7.67 ng/mL; concentration at 2 hours ([2]; CD-1, mouse, brain homogenate, Brain, read-out: Tissue Homogenate Conc. Mean): 6.82 ng/mL; concentration at 2 hours ([2]; CD-1, mouse, brain, Brain, read-out: Mean Tissue): 27.3 ng/g; Kp at 2 hours ([2]; CD-1, mouse, brain/plasma, Brain, read-out: Mean Tissue/Plasma Conc. Ratio): 0.083; concentration at 2 hours ([2]; CD-1, mouse, plasma, Plasma, individual, read-out: Plasma Conc. n = 3): 357 ng/mL; concentration at 2 hours ([2]; CD-1, mouse, plasma, Plasma, read-out: Plasma Conc. Mean): 329 ng/mL; remaining activity at 1 µM [3]: 54%
